Read-outs that look alike come from different tables or passages of the source.
Columns and labels:
IL-6 = experiment: A549 Cell Assay to Measure Inflammation Markers (inhibition of IL-1β-induced IL-6); assay type: cell-based; conditions: A549 cells, read-out: A549 cell assay
Procedure, shortened: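 A549 cells pre-incubated 1 h with compound (10-point dilution, 0.1% DMSO final) in charcoal-stripped serum medium, then stimulated 4 h with 1 ng/mL IL-1β at 37° C. Supernatant IL-6 measured by MSD immunoassay; IC50 and Emax relative to 1 μM prednisolone as 100% inhibition; viability checked by CellTiter-Glo.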

[1] = target: T1, Glucocorticoid Receptor (GR) (Homo sapiens, UniProt P04150); experiment: GR Fluorescence Polarization Assay (PolarScreen Glucocorticoid Receptor Competitor Assay, Red); conditions: fluorescence polarization binding ranges
T1 construct: purchased Invitrogen P2893
T1 sequence (P04150 1-777): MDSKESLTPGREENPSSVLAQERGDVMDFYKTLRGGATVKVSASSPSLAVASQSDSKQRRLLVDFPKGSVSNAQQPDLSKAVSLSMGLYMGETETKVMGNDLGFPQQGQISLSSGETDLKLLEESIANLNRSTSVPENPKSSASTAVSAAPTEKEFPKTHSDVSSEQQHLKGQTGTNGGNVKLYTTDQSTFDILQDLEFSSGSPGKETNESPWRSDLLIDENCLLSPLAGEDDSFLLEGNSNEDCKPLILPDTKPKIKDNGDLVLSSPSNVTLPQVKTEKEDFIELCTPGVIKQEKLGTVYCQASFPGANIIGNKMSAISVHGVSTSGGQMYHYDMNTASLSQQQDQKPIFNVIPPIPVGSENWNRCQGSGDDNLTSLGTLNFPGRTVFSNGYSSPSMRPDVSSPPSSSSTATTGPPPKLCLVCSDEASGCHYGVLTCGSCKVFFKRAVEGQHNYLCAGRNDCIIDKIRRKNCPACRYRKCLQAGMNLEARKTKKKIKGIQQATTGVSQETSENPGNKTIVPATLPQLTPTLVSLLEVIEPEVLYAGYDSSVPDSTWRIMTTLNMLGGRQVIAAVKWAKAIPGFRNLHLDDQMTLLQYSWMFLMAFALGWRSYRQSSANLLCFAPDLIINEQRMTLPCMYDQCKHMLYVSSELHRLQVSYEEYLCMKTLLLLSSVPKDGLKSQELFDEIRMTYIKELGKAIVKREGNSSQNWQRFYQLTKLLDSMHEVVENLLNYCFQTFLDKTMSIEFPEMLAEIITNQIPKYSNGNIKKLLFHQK
Procedure, shortened: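 Competitive fluorescence polarization using a red fluorescent glucocorticoid tracer and GR in kit buffer. Compounds in 1:4 DMSO serial dilution, incubated with tracer and receptor overnight at 4° C before polarization read-out.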

Row | IC50 (IL-6; Homo sapiens) | IC50 [1] | IC50 (IL-6) | Compound
1 | > 10000 nM | 100 to 1000 nM |  | CC[C@]12CC[C@](O)(C(F)(F)F)C[C@H]1CCCc1c2cc2cnn(-c3ccc(F)cc3)c2c1Br [Example 92, (3R,4aR,12bS)-8-Bromo-12b-ethyl-9-(4-fluorophenyl)-3-(trifluoromethyl)-1,2,3,4,4a,5,6,7,9,12b-decahydrobenzo[6,7]cyclohepta[1,2-f]indazol-3-ol]
2 | > 10000 nM | < 100 nM |  | CC[C@]12CC[C@](O)(C(F)(F)F)C[C@H]1CC=Cc1cc3c(cnn3-c3ccc(F)cc3)cc12 [Example 93, (3R,4aR,12bS)-12b-Ethyl-9-(4-fluorophenyl)-3-(trifluoromethyl)-1,2,3,4,4a,5,9,12b-octahydrobenzo[6,7]cyclohepta[1,2-f]indazol-3-ol]
3 | < 100 nM | < 100 nM |  | CC[C@@]1(O)CC[C@@]2(Cc3ccccn3)c3cc4cnn(-c5ccc(F)cc5)c4cc3C(=O)CC[C@H]2C1 [Example 94, (3R,4aS,12bS)-3-Ethyl-9-(4-fluorophenyl)-3-hydroxy-12b-(pyridin-2-ylmethyl)-1,2,3,4,4a,5,6,12b-octahydrobenzo[6,7]cyclohepta[1,2-f]indazol-7(9H)-one]
4 | < 100 nM | < 100 nM |  | CC[C@@]12CC[C@](O)(C(F)(F)F)C[C@H]1CCCc1c2cc2cnn(-c3ccc(F)cc3)c2c1Br [Example 102, (3R,4aR,12bR)-8-Bromo-12b-ethyl-9-(4-fluorophenyl)-3-(trifluoromethyl)-1,2,3,4,4a,5,6,7,9,12b-decahydrobenzo[6,7]cyclohepta[1,2-f]indazol-3-ol]
5 | < 100 nM | < 100 nM |  | CC[C@@]12CC[C@](O)(C(F)(F)F)C[C@H]1CCCc1c2cc2cnn(-c3ccc(F)cc3)c2c1C [Example 103, (3R,4aR,12bR)-12b-Ethyl-9-(4-fluorophenyl)-8-methyl-3-(trifluoromethyl)-1,2,3,4,4a,5,6,7,9,12b-decahydrobenzo[6,7]cyclohepta[1,2-f]indazol-3-ol]
6 | < 100 nM | < 100 nM |  | CC[C@@]12CC[C@](O)(C(F)(F)F)C[C@H]1CCC(=O)c1cc3c(cnn3-c3ccc(F)cc3)cc12 [Example 105, (3R,4aR,12bR)-12b-Ethyl-9-(4-fluorophenyl)-3-hydroxy-3-(trifluoromethyl)-1,2,3,4,4a,5,6,12b-octahydrobenzo[6,7]cyclohepta[1,2-f]indazol-7(9H)-one]
7 | < 100 nM | < 100 nM |  | CC[C@@]12C[C@H](O)[C@@](O)(C(F)(F)F)C[C@H]1CCCc1cc3c(cnn3-c3ccc(F)cc3)cc12 [Example 108, (2S,3R,4aR,12bR)-12b-Ethyl-9-(4-fluorophenyl)-3-(trifluoromethyl)-1,2,3,4,4a,5,6,7,9,12b-decahydrobenzo[6,7]cyclohepta[1,2-f]indazole-2,3-diol]
8 |  | < 100 nM | < 100 nM | CC#C[C@@]1(O)CC[C@@]2(CC)c3cc4cnn(-c5ccc(F)cc5)c4cc3CCC[C@@H]2C1 [Example 111]
9 |  | 100 to 1000 nM | < 100 nM | CC#C[C@]1(O)CC[C@]2(CC)c3cc4cnn(-c5ccc(F)cc5)c4cc3CCC[C@H]2C1 [Example 112]
10 | < 100 nM | < 100 nM |  | CC[C@@]1(O)CC[C@@]2(CC)c3cc4cnn(-c5ccc(F)cc5)c4cc3CCC[C@@H]2C1 [Example 113, (3R,4aR,12bR)-3,12b-Diethyl-9-(4-fluorophenyl)-1,2,3,4,4a,5,6,7,9,12b-decahydrobenzo[6,7]cyclohepta[1,2-f]indazol-3-ol]
11 |  | 100 to 1000 nM | 100 to 1000 nM | CC[C@]1(O)CC[C@]2(CC)c3cc4cnn(-c5ccc(F)cc5)c4cc3CCC[C@H]2C1 [Example 114]
12 | > 10000 nM | 100 to 1000 nM |  | CC[C@]12CC[C@](O)(CN[C@H](C)c3ccccc3)C[C@@H]1CCCc1cc3c(cnn3-c3ccc(F)cc3)cc12 [Example 125, (3R,4aS,12bS)-12b-ethyl-9-(4-fluorophenyl)-3-((((R)-1-phenylethyl)amino)methyl)-1,2,3,4,4a,5,6,7,9,12b-decahydrobenzo[6,7]cyclohepta[1,2-f]indazol-3-ol]
13 | > 10000 nM | < 100 nM |  | CC[C@@]12CC[C@@](O)(CN[C@H](C)c3ccccc3)C[C@H]1CCCc1cc3c(cnn3-c3ccc(F)cc3)cc12 [Example 126, (3S,4aR,12bR)-12b-ethyl-9-(4-fluorophenyl)-3-((((R)-1-phenylethyl)amino)methyl)-1,2,3,4,4a,5,6,7,9,12b-decahydrobenzo[6,7]cyclohepta[1,2-f]indazol-3-ol]
14 |  | < 100 nM | > 10000 nM | CC[C@]12CC[C@@](O)(COC)C[C@H]1CCOc1cc3c(cnn3-c3ccc(F)cc3)cc12 [Example 130]
15 |  | < 100 nM | < 100 nM | CC[C@@]12CC[C@](O)(COC)C[C@@H]1CCOc1cc3c(cnn3-c3ccc(F)cc3)cc12 [Example 131]
16 | > 10000 nM | 100 to 1000 nM |  | CC[C@]12CC[C@@](O)(COC)C[C@H]1CCOc1cc3c(cnn3-c3ccncc3)cc12 [Example 133]

Row | IC50 (IL-6; Homo sapiens) | IC50 [1] | IC50 (IL-6) | Compound
17 | < 100 nM | < 100 nM |  | CC[C@@]12CC[C@](O)(COC)C[C@@H]1CCOc1cc3c(cnn3-c3ccncc3)cc12 [Example 134]
18 |  | < 100 nM | 1000 to 10000 nM | CC[C@@]12CC[C@](O)(COC)C[C@@H]1CCOc1cc3c(cnn3-c3ccnc(OC)c3)cc12 [Example 138]
19 |  | < 100 nM | 1000 to 10000 nM | CC[C@@]12CC[C@](O)(COC)C[C@@H]1CCOc1cc3c(cnn3-c3ccnc(C(F)(F)F)c3)cc12 [Example 141]
20 | < 100 nM | < 100 nM |  | CC[C@@]12CC[C@@](C)(O)C[C@@H]1CCOc1cc3c(cnn3-c3ccnc(C)c3)cc12 [Example 143]
21 | < 100 nM | < 100 nM |  | CC[C@@]12CC[C@](O)(CC#N)C[C@@H]1CCOc1cc3c(cnn3-c3ccnc(C)c3)cc12 [Example 145]
22 |  | < 100 nM | < 100 nM | COC[C@@]1(O)CC[C@@]2(Cc3ccccn3)c3cc4cnn(-c5ccc(F)cc5)c4nc3CCC[C@@H]2C1 [Example 156]
23 |  | < 100 nM | < 100 nM | COC[C@@]1(O)CC[C@@]2(Cc3ncccn3)c3cc4cnn(-c5ccc(F)cc5)c4nc3CCC[C@H]2C1 [Example 158]
24 |  | < 100 nM | < 100 nM | N#CC[C@]1(O)CC[C@]2(Cc3ncccn3)c3cc4cnn(-c5ccc(F)cc5)c4nc3CCC[C@@H]2C1 [Example 160]
25 |  | 100 to 1000 nM | 1000 to 10000 nM | C[C@]1(O)CC[C@]2(Cc3ncccn3)c3cc4cnn(-c5ccc(F)cc5)c4nc3CCC[C@@H]2C1 [Example 162]
26 |  | < 100 nM | < 100 nM | N#CC[C@@]1(O)CC[C@@]2(Cc3ccccn3)c3cc4cnn(-c5ccc(F)cc5)c4nc3CCC[C@H]2C1 [Example 163]
27 |  | < 100 nM | < 100 nM | N#CC[C@@]1(O)CC[C@@]2(Cc3ncccn3)c3cc4cnn(-c5ccc(F)cc5)c4nc3CCC[C@H]2C1 [Example 165]
28 | < 100 nM | < 100 nM |  | CC[C@@]12CC[C@](O)(C(F)(F)F)C[C@H]1CCCc1cc3c(cnn3-c3ccc(S(C)(=O)=O)cc3)cc12 [Example 168, (3R,4aR,12bR)-12b-ethyl-9-(4-(methylsulfonyl)phenyl)-3-(trifluoromethyl)-1,2,3,4,4a,5,6,7,9,12b-decahydrobenzo[6,7]cyclohepta[1,2-f]indazol-3-ol]
29 | 1000 to 10000 nM | 100 to 1000 nM |  | CC[C@]12CC[C@@](O)(C(F)(F)F)C[C@@H]1CCCc1cc3c(cnn3-c3ccc(S(C)(=O)=O)cc3)cc12 [Example 169, (3S,4aS,12bS)-12b-ethyl-9-(4-(methylsulfonyl)phenyl)-3-(trifluoromethyl)-1,2,3,4,4a,5,6,7,9,12b-decahydrobenzo[6,7]cyclohepta[1,2-f]indazol-3-ol]
30 | < 100 nM | < 100 nM |  | CC[C@]12CC[C@@](OCC(N)=O)(C(F)(F)F)C[C@@H]1CCCc1cc3c(cnn3-c3ccc(F)cc3)cc12 [Example 171, 2-(((3S,4aS,12bS)-12b-Ethyl-9-(4-fluorophenyl)-3-(trifluoromethyl)-1,2,3,4,4a,5,6,7,9,12b-decahydrobenzo[6,7]cyclohepta[1,2-f]indazol-3-yl)oxy)acetamide]
31 | > 10000 nM | < 100 nM |  | CC[C@]12CC[C@@](OCC(=O)O)(C(F)(F)F)C[C@@H]1CCCc1cc3c(cnn3-c3ccc(F)cc3)cc12 [Example 172, 2-(((3S,4aS,12bS)-12b-ethyl-9-(4-fluorophenyl)-3-(trifluoromethyl)-1,2,3,4,4a,5,6,7,9,12b-decahydrobenzo[6,7]cyclohepta[1,2-f]indazol-3-yl)oxy)acetic acid]

From patent US9193744B2, “Heterocyclic nuclear hormone receptor modulators” (AbbVie Inc., priority 2012, dated 2015)
